Among the test systems are A498; CCRF-CEM; COLO 205; DMS-273; HCT-116; HCT-15; HT-29; IGROV-1; M14; MOLT-4; NCI-H23; NCI-H460; NCI-H522; NCI/ADR-RES; OVCAR-3; OVCAR-5; RXF 393; SK-OV-3; SNB-19; SW-620.
Common to all, as to assay: NCI-60 cell line screen, 48 h

Structures are written as SMILES.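 Step 1: Grow cells in 96-well plates. Step 2: Expose to compound for 48 hours at 5 concentrations. Step 3: Interpolate endpoints linearly; if unreached, use highest concentration. The concentration for 50% growth inhibition is given as GI50.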 Active and inactive are the calls of the source. No stated cut-off is given here; in the data, active = GI50 up to about 1.1 µM and inactive = higher. Some results are limits rather than exact numbers.

Take `O=C1C(Cl)=C(c2ccc([N+](=O)[O-])cc2)C(=O)c2c(O)cccc21`: the GI50 in the assay on A498 was 3.08 µM (inactive); in the assay with CCRF-CEM, 1.55 µM (inactive); in the assay on COLO 205, 1.82 µM (inactive); with DMS-273, 4.06 µM (inactive); with HCT-116, 1.06 µM (active); in the assay with HCT-15, 0.614 µM. The GI50 was 2.72 µM (inactive) with HT-29; 2.39 µM (inactive) with IGROV-1; 0.979 µM (active) with M14; 2.56 µM (inactive) in the assay on MOLT-4; 1.67 µM (inactive) in the assay with NCI-H23; 2.3 µM (inactive) with NCI-H460. Moreover, the GI50 in the assay with NCI-H522 was 0.292 µM (active); in the assay on NCI/ADR-RES it was 2.39 µM (inactive); in the assay with OVCAR-3, 1.3 µM (inactive); in the assay with OVCAR-5, 2.24 µM (inactive); in the assay on RXF 393, 0.678 µM (active); in the assay on SK-OV-3 it was 2.87 µM (inactive). The values for the GI50 in the assay on SNB-19 and in the assay on SW-620 were 1.45 µM (inactive) and 1.96 µM (inactive), respectively.
As for `CO/C=C1\OC(=O)C=C1OC`, the GI50 in the assay on A498 is > 100 µM (inactive); in the assay on CCRF-CEM, > 100 µM (inactive); in the assay with COLO 205, > 100 µM (inactive); in the assay on DMS-273, > 100 µM (inactive); in the assay with HCT-116, > 100 µM (inactive); in the assay with HCT-15 it was more than 100 µM. For the same molecule, the GI50 in the assay on HT-29, in the assay on IGROV-1, with MOLT-4, with NCI-H23, in the assay on NCI-H460 and in the assay with NCI-H522 was > 100 µM (inactive) each time. The GI50 in the assay on NCI/ADR-RES, with OVCAR-3, with OVCAR-5, with RXF 393, with SK-OV-3 and in the assay with SNB-19 was > 100 µM (inactive) in each case. In the assay with SW-620, the GI50 is > 100 µM (inactive).
For `Cc1c2cc[n+](Cc3ccc(I)cc3)cc2c(C)c2c1[nH]c1ccccc12`, the GI50 in the assay with A498 is 0.697 µM (active); in the assay on CCRF-CEM, 0.448 µM (active); with COLO 205, 0.61 µM (active); in the assay with DMS-273 it was 0.506 µM (active); in the assay on HCT-116, 0.574 µM (active); with HCT-15, 7.8 µM. Moreover, the GI50 in the assay on HT-29 was 0.857 µM (active); in the assay on IGROV-1 it was 1.1 µM (active); in the assay on MOLT-4, 0.574 µM (active); with NCI-H23, 0.65 µM (active); with NCI-H460, 0.281 µM (active); with NCI-H522, 0.692 µM (active). Besides, the GI50 in the assay on NCI/ADR-RES is > 25 µM (inactive); in the assay with OVCAR-3, 0.791 µM (active); in the assay with OVCAR-5, 1.37 µM (inactive); in the assay with RXF 393 it was 0.893 µM (active); with SK-OV-3 it was 3.84 µM (inactive); with SNB-19 it was 0.471 µM (active). The GI50 in the assay with SW-620 is 0.912 µM (active).
